In brackets after ≈: the same amount, converted by molar mass.

One series concerns Plasmodium falciparum. The series is described as follows: Antimalarial activity against Plasmodium falciparum K1. Format: functional, organism-based.
The nature of series [1]: Hemolytic activity against human RBC at 250 uM after 1 hr relative to control. In kind it is ADME, cell-based, Erythrocyte. Conditions: red blood cells (erythrocytes), read-out: Activity.
Series [2] in a line: Cytotoxicity against human HepG2 cells assessed as cell viability after 72 hrs by MTT assay relative to control. In kind it is cell-based. Also on record: concentration or dose not given beside the values. Conditions: read-out: Activity. In general terms: Tetrazolium dyes change colour on reduction, which living cells bring about.
The next series deals with Pseudomonas aeruginosa. The experiment in a line: Antimicrobial activity against Pseudomonas aeruginosa PAO1 after 24 to 48 hrs by broth serial dilution method. In kind it is functional.
The next series deals with Escherichia coli. The experiment in a line: Antimicrobial activity against Escherichia coli ATCC […] after 24 to 48 hrs by broth serial dilution method. In kind it is functional.
Another series deals with Staphylococcus aureus. The series is described as follows: Antimicrobial activity against Staphylococcus aureus ATCC 25923 after 24 to 48 hrs by broth serial dilution method. Format: functional.
[3] abbreviates: Plasmodium falciparum, K1, read-out: IC50.

In the case of `CCOc1ccc(N2C(=O)[C@H](Oc3ccc(-c4nc5ccccc5s4)cc3)[C@@H]2c2ccc([N+](=O)[O-])cc2)cc1`, the IC50 with Plasmodium falciparum (setting [3]) stood at 11.8 µM. For the same molecule, the hemolysis at 1 h, 250 µM in series [1] was 2.29%. Besides, the viability at 72 h in series [2] was 74.8%. Moreover, the MIC is above 200 µg/mL with Pseudomonas aeruginosa, above 200 µg/mL with Escherichia coli and 215 µg/mL (≈ 400 µM) against Staphylococcus aureus.

As to `COc1ccc(N2C(=O)[C@H](Oc3ccc(-c4nc5ccccc5s4)cc3)[C@@H]2c2c3ccccc3cc3ccccc23)cc1`, in the series on Plasmodium falciparum, the IC50 entry is listed as “Nd(Insoluble)”. For the same molecule, the hemolysis at 1 h, 250 µM in series [1] stood at 0.89%. Moreover, the MIC was above 200 µg/mL against Pseudomonas aeruginosa, above 200 µg/mL in the series with Escherichia coli and 231 µg/mL (≈ 399 µM) in the series on Staphylococcus aureus.

As for `COc1ccc(N2C(=O)[C@H](Oc3ccc(-c4nc5ccccc5s4)cc3)[C@@H]2c2ccc(Cl)cc2)cc1`, the IC50 with Plasmodium falciparum (setting [3]) was found to be 40.7 µM. In addition, the hemolysis at 1 h, 250 µM in series [1] is 0.93%. Also, the figures for the MIC in the series with Pseudomonas aeruginosa, against Escherichia coli and in the series with Staphylococcus aureus were above 200 µg/mL, above 200 µg/mL and 205 µg/mL (≈ 400 µM), respectively.

On to `Cc1ccc(N2C(=O)[C@H](Oc3cccc(-c4nc5ccccc5s4)c3)[C@@H]2c2ccc(Cl)cc2)cc1`, for which the IC50 in the series on Plasmodium falciparum (setting [3]) was determined as 76.7 µM. For the same molecule, the hemolysis at 1 h, 250 µM in series [1] worked out at 1.13%. The MIC in the series on Pseudomonas aeruginosa is above 200 µg/mL; against Escherichia coli, above 200 µg/mL; against Staphylococcus aureus it was 199 µg/mL (≈ 400 µM).

As to `COc1ccc(N2C(=O)[C@H](Oc3ccc(-c4nc5ccccc5s4)cc3)[C@@H]2c2cccc([N+](=O)[O-])c2)cc1`, the IC50 in the series with Plasmodium falciparum (setting [3]) was found to be 17.7 µM. For the same molecule, the hemolysis at 1 h, 250 µM in series [1] turned out to be 1.02%. Further, in series [2], the viability at 72 h amounted to 62.8%. The results for the MIC against Pseudomonas aeruginosa, in the series with Escherichia coli and with Staphylococcus aureus were above 200 µg/mL, above 200 µg/mL and 26 µg/mL (≈ 49.7 µM), respectively.

Consider `COc1ccc(N2C(=O)[C@H](Oc3ccc(-c4nc5ccccc5s4)cc3)[C@@H]2c2ccc(OC)c(OC)c2)cc1`, for which the IC50 in the series on Plasmodium falciparum (setting [3]) worked out at 9.5 µM. In series [1], the hemolysis at 1 h, 250 µM came to 0.82%. The viability at 72 h in series [2] was 70.1%. The minimum inhibitory concentration (MIC) was above 200 µg/mL with Pseudomonas aeruginosa, above 200 µg/mL against Escherichia coli and 215 µg/mL (≈ 399 µM) against Staphylococcus aureus.

`CC(C)c1ccc([C@H]2[C@@H](Oc3ccc(-c4nc5ccccc5s4)cc3)C(=O)N2c2ccc(N(C)C)cc2)cc1`: the IC50 in the series with Plasmodium falciparum (setting [3]) is above 125 µM. Moreover, the hemolysis at 1 h, 250 µM in series [1] was 1.03%. For the same molecule, the results for the MIC in the series on Pseudomonas aeruginosa, with Escherichia coli and with Staphylococcus aureus were above 200 µg/mL, above 200 µg/mL and 107 µg/mL (≈ 200 µM), respectively.

With `COc1ccc(N2C(=O)[C@H](Oc3cccc(-c4nc5ccccc5s4)c3)[C@@H]2c2ccc([N+](=O)[O-])cc2)cc1`, the IC50 with Plasmodium falciparum (setting [3]) is above 125 µM. The hemolysis at 1 h, 250 µM in series [1] stood at 1.56%. Moreover, the viability at 72 h in series [2] amounted to 99.5%. The figures for the MIC in the series with Pseudomonas aeruginosa, with Escherichia coli and against Staphylococcus aureus were above 200 µg/mL, above 200 µg/mL and 26 µg/mL (≈ 49.7 µM), respectively.

Turning to `COc1ccc(N2C(=O)[C@H](Oc3cccc(-c4nc5ccccc5s4)c3)[C@@H]2c2ccc(Cl)cc2)cc1`, in the series with Plasmodium falciparum (setting [3]), the concentration for half-maximal inhibition (IC50) stood at 20.4 µM. The hemolysis at 1 h, 250 µM in series [1] was found to be 2.8%. The minimal inhibitory concentration (MIC) against Pseudomonas aeruginosa was above 200 µg/mL; in the series on Escherichia coli, above 200 µg/mL; in the series on Staphylococcus aureus it was 205 µg/mL (≈ 400 µM).

With `Cc1ccc(N2C(=O)[C@H](Oc3ccc(-c4nc5ccccc5s4)cc3)[C@@H]2c2ccc(Cl)cc2)cc1`, the half-maximal inhibitory concentration (IC50) in the series with Plasmodium falciparum (setting [3]) was determined as 31.1 µM. In series [1], the hemolysis at 1 h, 250 µM stood at 1.16%. The MIC is above 200 µg/mL in the series on Pseudomonas aeruginosa, above 200 µg/mL against Escherichia coli and 199 µg/mL (≈ 400 µM) with Staphylococcus aureus.

In the case of `COc1ccc(N2C(=O)[C@H](Oc3ccc(-c4nc5ccccc5s4)cc3)[C@@H]2c2ccc([N+](=O)[O-])cc2)cc1`, the IC50 in the series with Plasmodium falciparum (setting [3]) came out at 10.4 µM. In addition, the hemolysis at 1 h, 250 µM in series [1] stood at 1.11%. Besides, the viability at 72 h in series [2] came to 71.4%. Further, the MIC against Pseudomonas aeruginosa is above 200 µg/mL; in the series on Escherichia coli, above 200 µg/mL; against Staphylococcus aureus, 26 µg/mL (≈ 49.7 µM).

As to `O=C1[C@H](Oc2ccc(-c3nc4ccccc4s3)cc2)[C@H](/C=C/c2ccccc2)N1c1ccc(Cl)cc1`, the IC50 with Plasmodium falciparum (setting [3]) is 60.5 µM. Further, the hemolysis at 1 h, 250 µM in series [1] was found to be 2.18%. Besides, the minimum inhibitory concentration (MIC) was above 200 µg/mL in the series on Pseudomonas aeruginosa, above 200 µg/mL in the series with Escherichia coli and 204 µg/mL (≈ 401 µM) in the series on Staphylococcus aureus.

`O=C1[C@H](Oc2ccc(-c3nc4ccccc4s3)cc2)[C@H](c2ccc3ccccc3c2)N1c1ccccc1`: the IC50 in the series with Plasmodium falciparum (setting [3]) was determined as 16.3 µM. In addition, the hemolysis at 1 h, 250 µM in series [1] came out at 0.87%. Besides, in series [2], the viability at 72 h was determined as 58%. The MIC is above 200 µg/mL in the series with Pseudomonas aeruginosa, above 200 µg/mL against Escherichia coli and 30 µg/mL (≈ 60.2 µM) with Staphylococcus aureus.

In the case of `CCOc1ccc(N2C(=O)[C@H](Oc3cccc(-c4nc5ccccc5s4)c3)[C@@H]2c2ccc([N+](=O)[O-])cc2)cc1`, the IC50 in the series on Plasmodium falciparum (setting [3]) is 6 µM. Moreover, in series [1], the hemolysis at 1 h, 250 µM was determined as 1.02%. In series [2], the viability at 72 h turned out to be 101%. For the same molecule, the MIC against Pseudomonas aeruginosa is above 200 µg/mL; against Escherichia coli, above 200 µg/mL; against Staphylococcus aureus, 215 µg/mL (≈ 400 µM).

For `COc1cc(N2C(=O)[C@H](Oc3ccc(-c4nc5ccccc5s4)cc3)[C@@H]2c2ccc([N+](=O)[O-])cc2)cc(OC)c1OC`, the IC50 result in the series with Plasmodium falciparum is “Nd(Insoluble)”. Besides, the hemolysis at 1 h, 250 µM in series [1] is 1.09%. Further, the viability at 72 h in series [2] was found to be 62.4%. Besides, the minimum inhibitory concentration (MIC) was above 200 µg/mL against Pseudomonas aeruginosa, above 200 µg/mL against Escherichia coli and 29 µg/mL (≈ 49.7 µM) with Staphylococcus aureus.

Take `Cc1ccc(N2C(=O)[C@H](Oc3ccc(-c4nc5ccccc5s4)cc3)[C@@H]2c2ccc([N+](=O)[O-])cc2)cc1`: in the series on Plasmodium falciparum (setting [3]), the IC50 is 11.4 µM. The hemolysis at 1 h, 250 µM in series [1] worked out at 1.25%. In addition, the viability at 72 h in series [2] came out at 80.7%. Also, the figures for the MIC in the series with Pseudomonas aeruginosa, in the series with Escherichia coli and in the series on Staphylococcus aureus were above 200 µg/mL, above 200 µg/mL and 25 µg/mL (≈ 49.3 µM), respectively.

The term IC50 denotes the midpoint of a concentration-inhibition curve. A word on the MIC: it is the smallest concentration in the dilution series that meets the test's criterion for growth inhibition.

These data come from ChEMBL document CHEMBL4138210, “Synthesis and biological evaluation of some novel diastereoselective benzothiazole β-lactam conjugates” (Eur J Med Chem, 2018).
